# Laboratory results published in article PMC3983388 (Journal of Medicinal Chemistry, 2014).
# Assays:
# [1] = in vivo, po; cited from earlier work
# [2] = pH 6.8, aqueous solubility pH 6.8
structure (smiles),measurement,setting,value
"Oc1c(I)cc(Cl)c2cccnc12 [Compound 58, 5-chloro-7-iodo-8-hydroxy-quinoline, reference compound]",solubility,physchem; [2],< 0.001 µM
same,serum levels,[1],13 to 25 µM
"Cc1ccc2c(Cl)cc(Cl)c(O)c2n1 [Compound 61, 5,7-dichloro-2-methyl-8-hydroxy-quinoline]",solubility,physchem; [2],0.394 µM
Cc1ccnc(NC(c2ccc([N+](=O)[O-])cc2)c2ccc3ccc(C)nc3c2O)c1 (centres unmarked) [Compound 35],solubility,physchem; [2],0.0659 µM
Cc1ccnc(NC(c2ccc([N+](=O)[O-])cc2)c2ccc3cccnc3c2O)c1 (centres unmarked) [Compound 34],solubility,physchem; [2],0.0741 µM
"Oc1c(CNc2ccccn2)ccc2cccnc12 [Compound 56, 7-(((Pyridin-2-yl)amino)methyl)quinolin-8-ol]",solubility,physchem; [2],0.111 µM
COc1ccc(C(Nc2ccccn2)c2ccc3ccc(C)nc3c2O)cc1 (centres unmarked) [Compound 37],solubility,physchem; [2],0.0338 µM
COc1ccc(C(Nc2ccccn2)c2ccc3cccnc3c2O)cc1 (centres unmarked) [Compound 36],solubility,physchem; [2],0.0053 µM
"Oc1c(C(Nc2ccccn2)c2ccccc2)ccc2cccnc12 (centres unmarked) [Compound 57, 7-(Phenyl((pyridin-2-yl)amino)methyl)quinolin-8-ol]",solubility,"physchem; pH 1, aqueous solubility pH 1.0",~1200 µM
same,solubility,physchem; [2],0.078 µM
"Oc1c(Cl)cc(Cl)c2cccnc12 [Compound 60, 5,7-dichloro-8-hydroxy-quinoline, reference compound]",solubility,physchem; [2],0.5 µM
